target: T1, wild-type FLT3 phosphorylation in Baf3 FLT3 cells (Homo sapiens, UniProt P36888); test: Cell-Based FLT3 Receptor Elisa; settings: 1 hour compound, 100 ng/mL Flt ligand 10 min; uncertainty ±20%
T1 sequence (P36888 27-993): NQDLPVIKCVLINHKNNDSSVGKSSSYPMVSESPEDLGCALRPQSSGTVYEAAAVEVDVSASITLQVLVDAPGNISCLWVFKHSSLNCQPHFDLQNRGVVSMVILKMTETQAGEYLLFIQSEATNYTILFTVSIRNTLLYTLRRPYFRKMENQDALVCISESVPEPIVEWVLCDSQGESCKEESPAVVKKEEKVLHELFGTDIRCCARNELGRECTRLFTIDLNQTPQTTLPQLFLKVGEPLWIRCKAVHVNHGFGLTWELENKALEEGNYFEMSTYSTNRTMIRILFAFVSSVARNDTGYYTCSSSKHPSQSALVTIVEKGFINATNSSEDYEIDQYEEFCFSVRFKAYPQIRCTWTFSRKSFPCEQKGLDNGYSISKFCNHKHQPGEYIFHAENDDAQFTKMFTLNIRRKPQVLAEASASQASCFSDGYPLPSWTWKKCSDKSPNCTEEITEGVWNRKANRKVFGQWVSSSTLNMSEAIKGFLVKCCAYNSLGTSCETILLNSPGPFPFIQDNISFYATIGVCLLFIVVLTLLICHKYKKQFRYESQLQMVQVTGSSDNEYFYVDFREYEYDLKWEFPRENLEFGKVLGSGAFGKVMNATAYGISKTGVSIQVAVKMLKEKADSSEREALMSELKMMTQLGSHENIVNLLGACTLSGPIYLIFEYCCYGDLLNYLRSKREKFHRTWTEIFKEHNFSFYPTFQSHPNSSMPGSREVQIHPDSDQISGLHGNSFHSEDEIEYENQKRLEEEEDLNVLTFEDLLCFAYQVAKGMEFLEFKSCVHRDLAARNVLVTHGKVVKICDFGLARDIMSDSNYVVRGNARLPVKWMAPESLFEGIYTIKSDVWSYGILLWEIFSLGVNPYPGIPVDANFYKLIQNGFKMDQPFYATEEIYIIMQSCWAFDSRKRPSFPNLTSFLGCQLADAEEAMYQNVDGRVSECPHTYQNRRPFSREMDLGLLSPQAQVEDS
Description: Cell-Based FLT3 Receptor Elisa
Specific cellular inhibition of FLT ligand-induced wild-type FLT3 phosphorylation was measured in the following manner: Baf3 FLT3 cells overexpressing the FLT3 receptor were obtained from Dr. Michael Heinrich (Oregon Health and Sciences University). The Baf3 FLT3 cell lines were created by stable transfection of parental Baf3 cells (a murine B cell lymphoma line dependent on the cytokine IL-3 for growth) with wild-type FLT3. Cells were selected for their ability to grow in the absence of IL-3 and in the presence of FLT3 ligand.
Baf3 cells were maintained in RPMI 1640 with 10% FBS, penn/strep and 10 ng/ml FLT ligand at 37° C., 5% CO2. To measure direct inhibition of the wild-type FLT3 receptor activity and phosphorylation a sandwich ELISA method was developed similar to those developed for other RTKs (see Sadick, M D, Sliwkowski, M X, Nuijens, A, Bald, L, Chiang, N, Lofgren, J A, Wong W L T. Analysis of Heregulin-Induced ErbB2 Phosphorylation with a High-Throughput Kinase Receptor Activation Enzyme-Linked Immunsorbent Assay, Analytical Biochemistry. 1996; 235:207-214 and Baumann C A, Zeng L, Donatelli R R, Maroney A C. Development of a quantitative, high-throughput cell-based enzyme-linked immunosorbent assay for detection of colony-stimulating factor-1 receptor tyrosine kinase inhibitors. J Biochem Biophys Methods. 2004; 60:69-79.). 200 μL of Baf3FLT3 cells (1×10^6/mL) were plated in 96 well dishes in RPMI 1640 with 0.5% serum and 0.01 ng/mL IL-3 for 16 hours prior to 1 hour compound or DMSO vehicle incubation. Cells were treated with 100 ng/mL Flt ligand (R&D Systems Cat# 308-FK) for 10 min. at 37° C. Cells were pelleted, washed and lysed in 100 ul lysis buffer (50 mM Hepes, 150 mM NaCl, 10% Glycerol, 1% Triton-X-100, 10 mM NaF, 1 mM EDTA, 1.5 mM MgCl2, 10 mM NaPyrophosphate) supplemented with phosphatase (Sigma Cat# P2850) and protease inhibitors (Sigma Cat #P8340). Lysates were cleared by centrifugation at 1000×g for 5 minutes at 4° C. Cell lysates were transferred to white wall 96 well microtiter (Costar #9018) plates coated with 50 ng/well anti-FLT3 antibody (Santa Cruz Cat# sc-480) and blocked with SeaBlock reagent (Pierce Cat#37527). Lysates were incubated at 4° C. for 2 hours. Plates were washed 3× with 200 ul/well PBS/0.1% Triton-X-100. Plates were then incubated with 1:8000 dilution of HRP-conjugated anti-phosphotyrosine antibody (Clone 4G10, Upstate Biotechnology Cat#16-105) for 1 hour at room temperature. Plates were washed 3× with 200 ul/well PBS/0.1% Triton-X-100. Signal detection with Super Signal Pico reagent (Pierce Cat#37070) was done according to manufacturer's instruction with a Berthold microplate luminometer. All data points are an average of triplicate samples. […] Inhibition and IC50 data analysis was done with GraphPad Prism using a non-linear regression fit with a multiparamater, sigmoidal dose-response (variable slope) equation.

Compound	IC50 [nM]
CO/N=C/c1c(N)ncnc1N1CCC(NC(=O)Nc2ccc(Cl)cc2)CC1 [Number 25, 1-{1-[6-Amino-5-(methoxyimino-methyl)-pyrimidin-4-yl]-piperidin-4-yl}-3-(4-chloro-phenyl)-urea]	78
CCNC(=O)NCCO/N=C/c1c(N)ncnc1N1CCC(NC(=O)Nc2ccc(C(C)C)cc2)C1 (centres unmarked) [Number 28, 1-[1-(6-Amino-5-{[2-(3-ethyl-ureido)-ethoxyimino]-methyl}-pyrimidin-4-yl)-pyrrolidin-3-yl]-3-(4-isopropyl-phenyl)-urea]	2300
CO/N=C/c1c(N)ncnc1N1CCC(NC(=O)Nc2ccc(OC3CCC3)nc2)CC1 [Number 15, 1-{1-[6-Amino-5-(methoxyimino-methyl)-pyrimidin-4-yl]-piperidin-4-yl}-3-(6-cyclobutoxy-pyridin-3-yl)-urea]	195
CO/N=C/c1c(N)ncnc1N1CCC(NC(=O)Nc2ccc(OC(C)C)cc2)C1 (centres unmarked) [Number 8, 1-{1-[6-Amino-5-(methoxyimino-methyl)-pyrimidin-4-yl]-pyrrolidin-3-yl}-3-(4-isopropoxy-phenyl)-urea]	176
CO/N=C/c1c(N)ncnc1N1CCC(OC(=O)Nc2ccc(OC(C)C)cc2)CC1 [Number 1, (4-Isopropoxy-phenyl)-carbamic acid 1-[6-amino-5-(methoxyimino-methyl)-pyrimidin-4-yl]-piperidin-4-yl ester]	204
CO/N=C/c1c(N)ncnc1N1CCC(OC(=O)Nc2ccc(C(C)C)cc2)CC1 [Number 5, (4-Isopropyl-phenyl)-carbamic acid 1-[6-amino-5-(methoxyimino-methyl)-pyrimidin-4-yl]-piperidin-4-yl ester]	4
CO/N=C/c1c(N)ncnc1N1CCC(NC(=O)Nc2ccc(OC3CCCC3)nc2)CC1 [Number 23, 1-{1-[6-Amino-5-(methoxyimino-methyl)-pyrimidin-4-yl]-piperidin-4-yl}-3-(6-cyclopentyloxy-pyridin-3-yl)-urea]	35
CCO/N=C/c1c(N)ncnc1N1CCC(OC(=O)Nc2ccc(OC(C)C)cc2)CC1 [Number 2, (4-Isopropoxy-phenyl)-carbamic acid 1-[6-amino-5-(ethoxyimino-methyl)-pyrimidin-4-yl]-piperidin-4-yl ester]	74
CO/N=C/c1c(N)ncnc1N1CCC(NC(=O)Nc2ccc(Oc3ccccc3)cc2)CC1 [Number 26, 1-{1-[6-Amino-5-(methoxyimino-methyl)-pyrimidin-4-yl]-piperidin-4-yl}-3-(4-phenoxy-phenyl)-urea]	175
CO/N=C/c1c(N)ncnc1N1CCC(NC(=O)Nc2ccc(C3CCCCC3)cc2)CC1 [Number 22, 1-{1-[6-Amino-5-(methoxyimino-methyl)-pyrimidin-4-yl]-piperidin-4-yl}-3-(4-cyclohexyl-phenyl)-urea]	40
CO/N=C/c1c(N)ncnc1N1CCC(NC(=O)Nc2ccc(N3CCCCC3)cc2)C1 (centres unmarked) [Number 9, 1-{1-[6-Amino-5-(methoxyimino-methyl)-pyrimidin-4-yl]-pyrrolidin-3-yl}-3-(4-piperidin-1-yl-phenyl)-urea]	127
